Experimental data as given in article PMC8185074, “Anchor extension: a structure-guided approach to design cyclic peptides targeting enzyme active sites” (Nature Communications, 2021).
“And” between values parts separate entries of the source, which are not always exact repeats. Identical values can stand only once. Peptide text beside a SMILES is read from it.

How the values were obtained:
Assay type in all cases: biochemical
[1] = target: T1, HDAC6 (Homo sapiens, UniProt Q9UBN7); experiment: HDAC6 inhibition, full IC50 measurement (Reaction Biology; fluorogenic p53 peptide RHKK(Ac)AMC)
T1 construct: purchased Reaction Biology Corporation (assay run by the CRO)
T1 sequence (Q9UBN7 1-1215): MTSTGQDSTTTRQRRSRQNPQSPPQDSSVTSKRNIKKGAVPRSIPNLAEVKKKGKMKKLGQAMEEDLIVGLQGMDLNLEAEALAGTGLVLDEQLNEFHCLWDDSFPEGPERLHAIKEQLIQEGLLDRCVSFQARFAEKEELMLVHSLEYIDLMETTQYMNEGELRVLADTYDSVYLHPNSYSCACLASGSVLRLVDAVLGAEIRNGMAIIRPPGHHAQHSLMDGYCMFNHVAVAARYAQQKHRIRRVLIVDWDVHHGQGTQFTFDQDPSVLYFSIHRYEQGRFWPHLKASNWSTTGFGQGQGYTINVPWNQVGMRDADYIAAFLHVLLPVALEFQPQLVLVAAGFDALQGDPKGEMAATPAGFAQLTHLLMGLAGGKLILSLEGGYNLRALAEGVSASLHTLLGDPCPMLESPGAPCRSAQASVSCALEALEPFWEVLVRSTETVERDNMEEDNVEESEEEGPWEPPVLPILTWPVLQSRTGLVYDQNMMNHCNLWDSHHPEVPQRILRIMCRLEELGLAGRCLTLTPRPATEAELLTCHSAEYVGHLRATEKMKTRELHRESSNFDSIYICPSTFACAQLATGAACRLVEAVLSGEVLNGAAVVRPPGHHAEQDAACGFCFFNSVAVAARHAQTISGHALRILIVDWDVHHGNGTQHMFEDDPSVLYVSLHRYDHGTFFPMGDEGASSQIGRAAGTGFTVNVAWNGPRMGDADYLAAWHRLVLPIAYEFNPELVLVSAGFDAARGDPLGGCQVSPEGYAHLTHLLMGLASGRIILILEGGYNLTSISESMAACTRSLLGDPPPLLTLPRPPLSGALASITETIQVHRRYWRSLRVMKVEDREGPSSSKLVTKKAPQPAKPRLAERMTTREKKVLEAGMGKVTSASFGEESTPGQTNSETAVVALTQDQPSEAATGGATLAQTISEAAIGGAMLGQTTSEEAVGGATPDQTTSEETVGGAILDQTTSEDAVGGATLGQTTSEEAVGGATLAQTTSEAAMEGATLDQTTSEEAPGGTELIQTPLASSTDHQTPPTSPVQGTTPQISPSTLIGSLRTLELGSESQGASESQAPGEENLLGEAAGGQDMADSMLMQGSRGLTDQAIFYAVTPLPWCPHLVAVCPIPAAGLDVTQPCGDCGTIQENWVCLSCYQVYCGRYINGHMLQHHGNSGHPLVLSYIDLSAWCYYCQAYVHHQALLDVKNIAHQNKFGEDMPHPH
How it was run: (§1)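 Inhibitory peptides were acoustically dispensed with enzyme, then substrate added; 1 h at 30 °C. Developer stopped reaction; plateau endpoint fluorescence (360/460 nm) gave IC50.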

[2] = target: T2, HDAC3 (Homo sapiens, UniProt O15379); experiment: HDAC3 inhibition, full IC50 measurement (Reaction Biology; fluorogenic p53 peptide RHKK(Ac)AMC)
T2 construct: purchased Reaction Biology Corporation (assay run by the CRO)
T2 sequence (O15379 whole entry): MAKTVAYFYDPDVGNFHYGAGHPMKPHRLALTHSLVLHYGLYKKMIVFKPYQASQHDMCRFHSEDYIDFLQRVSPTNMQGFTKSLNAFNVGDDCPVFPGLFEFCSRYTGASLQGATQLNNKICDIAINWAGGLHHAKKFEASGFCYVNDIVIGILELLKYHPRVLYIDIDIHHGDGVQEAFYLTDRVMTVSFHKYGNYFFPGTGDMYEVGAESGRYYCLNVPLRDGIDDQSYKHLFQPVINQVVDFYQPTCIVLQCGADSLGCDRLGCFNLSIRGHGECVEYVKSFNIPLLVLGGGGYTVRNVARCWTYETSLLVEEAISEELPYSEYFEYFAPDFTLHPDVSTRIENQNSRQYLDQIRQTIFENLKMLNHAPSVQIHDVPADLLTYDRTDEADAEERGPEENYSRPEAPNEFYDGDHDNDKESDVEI
T2 sequence (Q9Y618 395-489 partner limits assumed): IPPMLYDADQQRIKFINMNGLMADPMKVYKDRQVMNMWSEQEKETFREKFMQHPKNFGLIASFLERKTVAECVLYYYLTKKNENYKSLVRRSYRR
How it was run: as §1

[3] = target: T3, HDAC8 (Homo sapiens, UniProt Q9BY41); experiment: HDAC8 inhibition, full IC50 measurement (Reaction Biology; fluorogenic p53 peptide RHKK(Ac)AMC); details: t1/t2 replicates
T3 construct: purchased Reaction Biology Corporation (assay run by the CRO)
T3 sequence (Q9BY41 1-377): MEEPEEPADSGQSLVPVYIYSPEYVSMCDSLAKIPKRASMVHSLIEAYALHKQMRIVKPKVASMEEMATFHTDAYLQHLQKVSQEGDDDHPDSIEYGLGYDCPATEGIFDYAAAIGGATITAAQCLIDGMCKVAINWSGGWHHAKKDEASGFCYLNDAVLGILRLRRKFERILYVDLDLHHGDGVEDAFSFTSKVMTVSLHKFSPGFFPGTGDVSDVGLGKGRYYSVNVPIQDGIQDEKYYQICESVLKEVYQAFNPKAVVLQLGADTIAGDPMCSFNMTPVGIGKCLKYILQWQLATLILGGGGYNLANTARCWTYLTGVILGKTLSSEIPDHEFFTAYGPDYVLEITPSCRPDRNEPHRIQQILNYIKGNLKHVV
How it was run: as §1

For CCCC[C@H]1NC(=O)[C@H](Cc2ccccc2)NC(=O)[C@H](CCCCCS)NC(=O)[C@@H](CCCNC(=N)N)NC(=O)[C@H](CC(=O)O)NC(=O)[C@@H](CO)NC(=O)[C@@H](C)NC(=O)[C@H](CCCCN)NC1=O [des4.3.1, SHA-Phe-dNle-Lys-dAla-dSer-Asp-dArg] (HELM PEPTIDE1{D.[dR].[O=C([C@H](CCCCCS)N[*:1])[*:2]].F.[CCCC[C@@H](N[*:1])C(=O)[*:2]].K.[dA].[dS]}$PEPTIDE1,PEPTIDE1,1:R1-8:R2$$$V2.0), the “6-Selectivity: fold potency for HDAC6 over HDAC2” value [1] was 88.2 fold and 88 fold, the “HDAC6 activity raw data (signal)” value ([1]; Conc. 1.00E-05 M, t1) was 5754 and the “HDAC6 activity raw data (signal)” value ([1]; Conc. 1.00E-05 M, t2) was 4634. The “HDAC6 activity raw data (signal)” value ([1]; Conc. 1.11E-06 M, t1) was 10293, the “HDAC6 activity raw data (signal)” value ([1]; Conc. 1.11E-06 M, t2) was 17466 and the “HDAC6 activity raw data (signal)” value ([1]; Conc. 1.23E-07 M, t1) was 97345. The “HDAC6 activity raw data (signal)” value ([1]; Conc. 1.23E-07 M, t2) was 90888, the “HDAC6 activity raw data (signal)” value ([1]; Conc. 1.37E-08 M, t1) was 307015 and the “HDAC6 activity raw data (signal)” value ([1]; Conc. 1.37E-08 M, t2) was 326589. The “HDAC6 activity raw data (signal)” value ([1]; Conc. 1.52E-09 M, t1) was 510826, the “HDAC6 activity raw data (signal)” value ([1]; Conc. 1.52E-09 M, t2) was 490649 and the “HDAC6 activity raw data (signal)” value ([1]; Conc. 3.33E-06 M, t1) was 6046. For the same compound, the “HDAC6 activity raw data (signal)” value ([1]; Conc. 3.33E-06 M, t2) was 6920, the “HDAC6 activity raw data (signal)” value ([1]; Conc. 3.70E-07 M, t1) was 48261 and the “HDAC6 activity raw data (signal)” value ([1]; Conc. 3.70E-07 M, t2) was 37034. The “HDAC6 activity raw data (signal)” value ([1]; Conc. 4.12E-08 M, t1) was 179198, the “HDAC6 activity raw data (signal)” value ([1]; Conc. 4.12E-08 M, t2) was 202702 and the “HDAC6 activity raw data (signal)” value ([1]; Conc. 4.57E-09 M, t1) was 433664. For the same compound, the “HDAC6 activity raw data (signal)” value ([1]; Conc. 4.57E-09 M, t2) was 442171, the “HDAC6 activity raw data (signal)” value ([1]; Conc. 5.08E-10 M, t1) was 531205 and the “HDAC6 activity raw data (signal)” value ([1]; Conc. 5.08E-10 M, t2) was 556727. For the same compound, the IC50 ([1]; figure legends, Supp. Tables 1 and 8, read-out: HDAC6 IC50) was 17.1 nM, the “HDAC3 activity raw data (signal)” value ([2]; Conc. 1.00E-05 M, t1) was 46115 and the “HDAC3 activity raw data (signal)” value ([2]; Conc. 1.00E-05 M, t2) was 35378. For the same compound, the “HDAC3 activity raw data (signal)” value ([2]; Conc. 1.11E-06 M, t1) was 372696, the “HDAC3 activity raw data (signal)” value ([2]; Conc. 1.11E-06 M, t2) was 416274 and the “HDAC3 activity raw data (signal)” value ([2]; Conc. 1.23E-07 M, t1) was 1045370. For the same compound, the “HDAC3 activity raw data (signal)” value ([2]; Conc. 1.23E-07 M, t2) was 1070696, the “HDAC3 activity raw data (signal)” value ([2]; Conc. 1.37E-08 M, t1) was 1250439 and the “HDAC3 activity raw data (signal)” value ([2]; Conc. 1.37E-08 M, t2) was 1300529. The “HDAC3 activity raw data (signal)” value ([2]; Conc. 1.52E-09 M, t1) was 1121419, the “HDAC3 activity raw data (signal)” value ([2]; Conc. 1.52E-09 M, t2) was 1274974 and the “HDAC3 activity raw data (signal)” value ([2]; Conc. 3.33E-06 M, t1) was 172249. The “HDAC3 activity raw data (signal)” value ([2]; Conc. 3.33E-06 M, t2) was 152173, the “HDAC3 activity raw data (signal)” value ([2]; Conc. 3.70E-07 M, t1) was 787295 and the “HDAC3 activity raw data (signal)” value ([2]; Conc. 3.70E-07 M, t2) was 779442. The “HDAC3 activity raw data (signal)” value ([2]; Conc. 4.12E-08 M, t1) was 1318255, the “HDAC3 activity raw data (signal)” value ([2]; Conc. 4.12E-08 M, t2) was 1249169 and the “HDAC3 activity raw data (signal)” value ([2]; Conc. 4.57E-09 M, t1) was 1278679. For the same compound, the “HDAC3 activity raw data (signal)” value ([2]; Conc. 4.57E-09 M, t2) was 1136444, the “HDAC3 activity raw data (signal)” value ([2]; Conc. 5.08E-10 M, t1) was 1099296 and the “HDAC3 activity raw data (signal)” value ([2]; Conc. 5.08E-10 M, t2) was 1140869. For the same compound, the “HDAC8 activity raw data (signal)” value ([3]; peptide conc. 1.00E-05 M, listed as des4.3.1_t1) was -1078311, the “HDAC8 activity raw data (signal)” value ([3]; peptide conc. 1.00E-05 M, listed as des4.3.1_t2) was -204031 and the “HDAC8 activity raw data (signal)” value ([3]; peptide conc. 1.11E-06 M, listed as des4.3.1_t1) was 952629. The “HDAC8 activity raw data (signal)” value ([3]; peptide conc. 1.11E-06 M, listed as des4.3.1_t2) was 3749954, the “HDAC8 activity raw data (signal)” value ([3]; peptide conc. 1.23E-07 M, listed as des4.3.1_t1) was 24845816 and the “HDAC8 activity raw data (signal)” value ([3]; peptide conc. 1.23E-07 M, listed as des4.3.1_t2) was 32510062. For the same compound, the “HDAC8 activity raw data (signal)” value ([3]; peptide conc. 1.37E-08 M, listed as des4.3.1_t1) was 71732810, the “HDAC8 activity raw data (signal)” value ([3]; peptide conc. 1.37E-08 M, listed as des4.3.1_t2) was 73842492 and the “HDAC8 activity raw data (signal)” value ([3]; peptide conc. 1.52E-09 M, listed as des4.3.1_t1) was 70954745. The “HDAC8 activity raw data (signal)” value ([3]; peptide conc. 1.52E-09 M, listed as des4.3.1_t2) was 80270259, the “HDAC8 activity raw data (signal)” value ([3]; peptide conc. 3.33E-06 M, listed as des4.3.1_t1) was 928811 and the “HDAC8 activity raw data (signal)” value ([3]; peptide conc. 3.33E-06 M, listed as des4.3.1_t2) was 1732618. The “HDAC8 activity raw data (signal)” value ([3]; peptide conc. 3.70E-07 M, listed as des4.3.1_t1) was 8410528, the “HDAC8 activity raw data (signal)” value ([3]; peptide conc. 3.70E-07 M, listed as des4.3.1_t2) was 10886213 and the “HDAC8 activity raw data (signal)” value ([3]; peptide conc. 4.12E-08 M, listed as des4.3.1_t1) was 59468141. For the same compound, the “HDAC8 activity raw data (signal)” value ([3]; peptide conc. 4.12E-08 M, listed as des4.3.1_t2) was 56999449, the “HDAC8 activity raw data (signal)” value ([3]; peptide conc. 4.57E-09 M, listed as des4.3.1_t1) was 79326596 and the “HDAC8 activity raw data (signal)” value ([3]; peptide conc. 4.57E-09 M, listed as des4.3.1_t2) was 78170432. The “HDAC8 activity raw data (signal)” value ([3]; peptide conc. 5.08E-10 M, listed as des4.3.1_t1) was 81559751 and the “HDAC8 activity raw data (signal)” value ([3]; peptide conc. 5.08E-10 M, listed as des4.3.1_t2) was 84202880.
